Values of other authors, collected in patent US11071781B2, “Combination of local and systemic immunomodulative therapies for enhanced treatment of cancer” (Provectus Pharmatech, Inc., priority 2011, dated 2021).
Where “and” joins values, the source holds several entries; their conditions need not be identical. Identical values can stand only once. Like-named read-outs stand apart in the source and are kept apart here.

What was measured:
melanoma = conditions: for toxicity and side effects: patients
cancer cells = conditions: previous work, WO 02/05812
[1] = intralesional therapy, melanoma patients

## IFN-α
melanoma; [1]
  complete response (CR): 31%
  objective response rate (ORR): 45%
  partial response (PR): 14%
melanoma; intralesional therapy
  toxicity and side effects: significant toxicity and side effects

## O=C1OC2(c3cc(I)c(O)c(I)c3Oc3c2cc(I)c(O)c3I)c2c(Cl)c(Cl)c(Cl)c(Cl)c21 [rose bengal, 4,5,6,7-tetrachloro-2′,4′,5′,7′-tetraiodofluorescein]
Cancer cells
  uptake into cancer cells versus normal cells: preferential uptake into cancer cells but is essentially excluded from normal cells

## N.N.[Cl][Pt][Cl] [cisplatin, reference compound]
melanoma; [1]
  objective response rate (ORR): 38% and 53%
melanoma; lesions having a median diameter of 3.0 cm
  ORR: 44%
melanoma; lesions with a median diameter of 0.6 cm
  ORR: 53%

## bleomycin [reference compound]
melanoma; single electrochemotherapy treatment, intralesional
  efficacy (in words): Substantial efficacy

B1: IFN-γ: interferon-gamma, non-specific cytokine (protein, UniProt P01579 24-161, looked up)
Interferon gamma: QDPYVKEAENLKKYFNAGHSDVADNGTLFLGILKNWKEESDRKIMQSQIVSFYFKLFKNFKDDQSIQKSVETIKEDMNVKFFNSNKKKRDDFEKLTNYSVTDLNVQRKAIHELIQVMAELSPAAKTGKRKRSQMLFRG
melanoma; intralesional interferon
  response to IL therapy (in words): either no result or transient response
melanoma; intralesional therapy
  toxicity and side effects: significant toxicity and side effects
